From patent publication US5026728A, “Treatment of arthritis and inflammation using N,N-dimethylglycine” (Foodscience Corporation, priority 1989, dated 1991)
“And” between values parts separate entries of the source, which are not always exact repeats. Equal entries are not always repeated. “Also recorded” adds a separate entry of the source. Structures can show the parent of a compound that is named as a salt. Where two headings read alike, the source gives them in different places.

Tests used:
[1] = test system: Type II collagen; test: ELISA immunoassay of antibody to Type II collagen in sera of collagen-immunized rats; type: in vivo, Female Wistar outbred rats
Method: (§1) Female Wistar outbred rats (age 10-12 weeks) were obtained from Charles River Breeding Laboratories Inc., Wilmington, Mass.) housed in metal cages and fed standard rodent chow with water ad libitum.
(§2) Immunization was performed using the method outlined by Stuart et al. (Stuart et al., supra). Type II collagen was dissolved in 0.01N acetic acid at a concentration of 2 mg/ml stirring overnight at 4° C. An emulsion was made using incomplete Freund's adjuvant (Difco) and each collagen solution at a ratio of 6:4. Eighteen Wistar rats were given 0.1 ml of a cold emulsion of collagen II by intradermal injection of the left hind footpad and booster injections in the tail at one week and again on day 36.
(§3) Dimethylglycine mixed in distilled water was administered intraperitoneally to half of the rats in the study at a dosage rate of 100 mg/kg body weight per day, beginning on the day of collagen immunization. Control rats were injected with only distilled water. Rats were sacrificed at the time of the occurrence of arthritis and were bled by cardiac puncture. Rats surviving at day 30 were bled by the tail vein and were bled again at the end of the study (day 51).
Sera were obtained by cardiac puncture on the day arthritis developed or at the end of the study (day 51). An enzyme-linked immunoassay (ELISA) technique adapted from the methods described by Stuart et al. supra was used to measure antibody titres.
Flat bottom 96 well microtitre plates (Corning) were coated with collagen as follows: Collagen was dissolved in 0.4 ionic strength phosphate buffer, pH 7.6 by stirring overnight at 4° C. The collagen concentration was adjusted to 5 μg/ml determined by the Lowry method (Lowry, O. et al., J. Biol. Chem. 193, 265 [1951]). Each well received 100 μl of collagen solution and the plates were incubated at 4° C. overnight. The coating solution was removed by inverting the plate and sharply snapping the wrist to remove remaining droplets. To reduce nonspecific absorption a blocker of phosphate-buffered saline (PBS) (pH 7.4) containing 0.5% ovalbumin (Grade V), Sigma Chemical Co., St. Louis, Mo.) was added and incubated for 1 hr. The plates were washed with PBS-Tween (containing […]) three times and used immediately. The sera were diluted with PBS-Tween containing 0.5% ovalbumin and aliquots of 100 μl were added to the Type II collagen-coatad microtitre plates. The plates were incubated at 4° C. overnight and washed three times with PBS-Tween. One hundred μl of a 1:3000 dilution of rabbit anti-rat IgG peroxidase conjugate (Sigma) was added and incubated for 4 hr at room temperature. Excess conjugate was removed by washing three times with PBS-Tween and the amount of conjugate bound was determined by adding orthophenylenediamine (OPD) (Sigma Chemical Co.) as a substrate. The substrate was prepared by adding 40 mg of OPD to […] of 0.224M citric acid 0.05M dibasic sodium phosphate pH 5.0 and adding 400 μl of 3% hydrogen peroxide. After incubation with the substrate for 20 min the microtitre plates were read for absorbance at 490 nm using a Mini Reader II (Dynatech).

[2] = test system: arthritis (Type II collagen-induced); test: Type II collagen-induced arthritis in rats, arthritic swelling of hindpaws (Example 1); type: in vivo, Female Wistar outbred rats; parameters: key to rats which showed arthritic swelling (mark): *: Indicates rats which showed arthritic swelling; settings: 100 mg/kg/day i.p.
Method: as §1, §2, §3
Animals in both groups were observed daily for the onset of arthritis. Swelling of the hindpaws was quantitated by measuring the thickness of the ankle from medial to lateral malleolus with a caliper (as done by Trentham et al. supra).

[3] = test system: arthritis (Type II collagen-induced); test: Prevention of arthritis in collagen-injected rats (Example 2); type: in vivo
Method: Eighteen rats were divided into two groups. Nine animals were injected i.p. with DMG (100 mg/kg body weight) daily, starting on day 14 prior to administration of collagen II, and continuing for 30 days after collagen II injection or until severe arthritic lesions were observed, if earlier. The remaining nine rats were similarly injected i.p. with sterile water. In this experiment, as compared with Example 1, the source of the collagen II was changed from a commercial preparation (Chemicon Corp., Temecula, Calif.) to a fresh preparation prepared by the process according to Trentham et al., 1977, supra.

[4] = test system: rheumatoid arthritis; test: Treatment of rheumatoid arthritis in humans (Example 3); type: in vivo, human
Method: Three patients, diagnosed as having rheumatoid arthritis in one or both knees with symptoms of acute pain, inflammation, joint tenderness and morning stiffness, were treated orally with 500 mg of DMG taken four times daily. The test period lasted for six weeks, during which time no other antiinflammatory drugs were taken.

[5] = test system: gouty arthritis; test: Treatment of gouty arthritis in humans (Example 4); type: in vivo, human; settings: 250 mg t.i.d.
Method: DMG was administered to two patients suffering from gouty arthritis, at a dosage of 250 mg t.i.d. over a three week period.

[6] = test system: chronic obstructive pulmonary disease (heaves); test: Treatment of chronic obstructive pulmonary disease in horses (Example 5); type: in vivo, horses (standardbred)
Method: Three standardbred horses, ages 3 to 7 years, were diagnosed as having chronic obstructive pulmonary disease, also known as equine asthma or the heaves. Clinical signs included frequent coughing, nasal discharge, increased respiratory rate and wheezing in the chest area. The horses were treated orally with 1.5 g of DMG hydrochloride twice daily for ten days.

[7] = test system: lymphocytes; settings: sickle cell disease and diabetes patients; three lectins; cited from earlier work
[8] = test system: interferon; settings: cited from earlier work
[9] = test system: lactic acid; settings: intravenous, severe surgical stress; cited from earlier work
[10] = high-dose rats; cited from earlier work
[11] = cited from earlier work
[12] = human tests; cited from earlier work
[13] = greyhounds given DMG; cited from earlier work
[14] = test system: interferon; settings: cited from earlier work; remark: listed apart in the source
[15] = test system: lymphocytes; settings: lymphocytes from DMG-fed animals; cited from earlier work
[16] = test system: hybridoma antibody producing cells; settings: in vitro cell cultures; cited from earlier work
[17] = test system: B cells; settings: research on humans; cited from earlier work
[18] = test system: T cells and macrophages; settings: research on humans; cited from earlier work
[19] = test system: B cells; settings: early research; cited from earlier work
[20] = test system: T cells and macrophages; settings: early research; cited from earlier work
[21] = animals under extreme stress; cited from earlier work
[22] = antibody titre, individual rat, DMG 100 mg/kg/day i.p., absorbance at 490 nm
[23] = mean, DMG-treated rats, 100 mg/kg/day i.p.
[24] = after 5 days, 1.5 g orally twice daily

With `CN(C)CC(=O)O` [DMG, N,N-dimethylglycine] the “antibody titres compared with control animals” value ([1]; 100 mg/kg/day i.p., rats immunized with Type II collagen) was “developed higher antibody titres than control animals”, the “ELISA Reading, serum from day 17” value [1, 22] was “.78” and the “ELISA Reading, serum from day 30” value [1, 22] was “.47 and .00 and .28 and .32 and .33 and .20 and .17 and .48”. The “ELISA Reading, serum from day 51” value [1, 22] was “.60 and .88 and .18 and .35 and .90 and .56 and .64”, the “Mean ELISA Reading, serum from day 17” value [1, 23] was “.78” and the “Mean ELISA Reading, serum from day 30” value [1, 23] was “.28”. The “Mean ELISA Reading, serum from day 51” value [1, 23] was “.54”, the “arthritic swellings of the hindpaws compared with non-DMG-treated group” value ([2]; beginning on the day of collagen immunization) was “did not develop to the same extent the arthritic swellings of the hindpaws” and the “rats which showed arthritic swelling (mark)” value ([2]; individual rat) was “*”. For the same compound, the “animals developing characteristic inflammation and swelling, of nine” value ([3]; 100 mg/kg i.p. daily from day 14 before collagen II, all control animals developed arthritis) was “only two developed the characteristic inflammation and swelling to any extent”, the “development of inflammation and swelling associated with Type II collagen-induced arthritis” value ([3]; 100 mg/kg/day, starting on day 14 prior to injection) was “either does not develop to the same extent, or does not develop at all” and the “fatigue and night pain” value ([4]; 500 mg orally four times daily) was “All three patients reported less fatigue and less night pain”. The “improvement in inflammation, pain and morning stiffness” value ([4]; after 21 days, 500 mg orally four times daily) was “two patients reported significant improvement in reduction of inflammation, pain and morning stiffness; also recorded: the third patient reported a lesser improvement”, the additional improvement ([4]; last three weeks of therapy (six weeks)) was “Additional improvement was noted in all three patients” and the “time after which benefits were noted” value [5] was 7 to 10 days. The “time to maximal benefits” value [5] was “maximal after two weeks”, the “pain, redness and inflammation” value ([5]; three weeks) was “Less pain, redness and inflammation were noted” and the “effect on inflammatory condition, heaves in horses” value ([6]; summary statement in description) was “demonstrated to reduce the inflammatory condition and to be an effective therapy for heaves in horses”. The “blast transformation activity of lymphocytes” value [7] was “approximately doubled”, the interferon production [8] was “effective in doubling interferon production; also recorded: will increase interferon production” and the lactic acid production [9] was “decreased lactic acid production”. The adaptation to hypoxia [10] was “better adaptation to hypoxia”, the “blood lactic acid level following training” value ([11]; DMG in the diet) was “lower blood lactic acid level following training” and the “appetite, attitude and recovery from racing and training” value ([11]; trainers' observation, versus controls) was “more aggressive, to have better appetites and attitudes and to recover faster from racing and training than the controls”. The exhaustion time [12] was “increase in exhaustion time”, the “immune response (antibody production and lymphocyte generation)” value [12] was “enhancement of the body's immune response” and the racing performance [13] was “improvement in racing performance”. For the same compound, the recovery after races [13] was “better recovery after races with less fatigue or muscle stiffness”, the interferon level ([14]; primary response, DMG-fed, none detected in immunized controls) was “high levels of interferon was present” and the interferon level ([14]; secondary response) was “Interferon was not present”. The “lymphocyte activation / proliferation” value [15] was “can stimulate the cellular immune system by lymphatic proliferation”, the production of antibodies [16] was “increases the production of antibodies” and the “antibody responses of B cells” value [17] was “much higher antibody responses”. For the same compound, the “activity of T cells and macrophages” value [18] was “enhances the activity of T cells and macrophages”, the “antibody responses of B cells (humoral branch)” value [19] was “much higher antibody responses” and the “activity of T cells and macrophages (cellular immunity branch)” value [20] was “potentiates the activity of T cells and macrophages”. For the same compound, the lactic acid levels [21] was “decrease lactic acid levels” and the oxygen utilization [21] was “increase oxygen utilization”.

In the case of `CN(C)CC(=O)O` [DMG-HCl], the “breathing and nasal discharge” value [6, 24] was “improved breathing and less nasal discharge”, the symptomatic relief [6, 24] was “All three horses showed symptomatic relief after 5 days” and the “clearing of air passages” value ([6]; end of 10 days, 1.5 g orally twice daily) was “the air passages of all three horses had cleared”.
